Laboratory results: PubChem BioAssay AID1259418 (Broad Institute, 2018)
Values joined by “and” are separate entries in the source; they are usually repeats but may differ in a detail not shown here. Equal values may be shown once. Inconclusive results are not listed. Active and inactive are the calls of the source.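 How the source made its calls: active means fitted half-maximal concentration of signal decrease at or below twice the sample's top tested concentration; inconclusive means flat curve between -70 and -30 percent, or poor fit; inactive means flat within 30 percent, signal rise, or potency above limit.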

These compounds were tested against T. gondii ME49Luc in IFN-y HeLa, luciferase, 72 h (assay: inhibitors of Toxoplasma growth in IFN-γ-primed HeLa – cell-based, ME49Luc, luciferase, 72 h, dose response (AID 1259418)).

Compound | AC50
C[C@@H]1CN([C@@H](C)CO)C(=O)Cc2cc(NS(=O)(=O)c3ccc(Cl)cc3)ccc2O[C@@H]1CN(C)C(=O)Nc1ccc(C(F)(F)F)cc1 | 27.9 µM and 13.5 µM
O=S(=O)(c1ccc2c(c1)CCCC2)N1CCC2(CC1)NCCN=C2NCc1ccc(Cl)cc1 | 9.16 µM
CC(C)CC#Cc1ccc([C@H]2[C@@H](CO)N3C(=O)CN(C(=O)Nc4cc(F)ccc4F)C[C@H]23)cc1 | 22.1 µM and 15.7 µM
COC(=O)C[C@H]1CC[C@@H]2[C@H](COc3ccc(NC(=O)Nc4cccc(C#N)c4)cc3C(=O)N2C)O1 | 19.5 µM
COc1cccc(CN2C[C@@H]3N[C@H](C2)C3c2ccc(-c3ccccc3C)cc2)c1 (some centres not stated) | 19 µM and 12.1 µM
CCOc1ccc(N(Cc2nc(-c3ccc(C)cc3)oc2C)S(=O)(=O)c2ccccc2)cc1 | > 39 µM (inactive)
N#Cc1ccc(-c2ccc(C3[C@@H]4CN(S(=O)(=O)c5ccc(F)cc5)C[C@H]3N4)cc2)cc1 (some centres not stated) | 12.1 µM and 13.8 µM
CC1CCCCN1CCNc1nc(-c2ccc(Cl)cc2)nc2ccccc12 (configuration not stated) | 10.9 µM and 12.7 µM
CCCCCCCCCCCCCCCC[n+]1ccccc1 | 11.5 µM
C[C@@H]1CN([C@@H](C)CO)C(=O)Cc2cc(NC(=O)C3CCCCC3)ccc2O[C@@H]1CN(C)Cc1ccc(Cl)c(Cl)c1 | 15.1 µM and 5.01 µM
C/C=C/c1ccc([C@H]2[C@H](CO)N3CCCCN(S(=O)(=O)c4ccc(OC)cc4)C[C@@H]23)cc1 | > 39 µM (inactive)
O=C(c1cnccn1)N1CC(=O)N2[C@H](C1)[C@H](c1ccc(/C=C/c3ccccc3)cc1)[C@@H]2CO | 11.9 µM and 23.5 µM
COc1ccc(C#Cc2ccc([C@H]3[C@@H](CO)N4C(=O)CN(C(=O)NC(C)C)C[C@@H]34)cc2)cc1 | 22.3 µM
CCCNC(=O)N1[C@H](C#N)[C@H](c2ccc(-c3ccccc3F)cc2)[C@@H]1CO | 3.6 µM
Cc1ccccc1-c1ccc([C@@H]2[C@@H](CO)N3CCCCN(S(=O)(=O)Cc4ccccc4)C[C@H]23)cc1 | 19.8 µM
CCc1nc(OCC(=O)Nc2ccc(Cl)cc2Cl)c2ccccc2n1 | 30 µM
CC(C)c1cccc(NC(=O)C[C@H]2CC[C@H]3[C@@H](COc4ccc(NS(=O)(=O)c5ccccc5Cl)cc4C(=O)N3C)O2)c1 | 22.6 µM
CC(C)CC#Cc1ccc([C@H]2[C@@H](CO)N3C(=O)CN(C(=O)c4cccc(F)c4)C[C@H]23)cc1 | 15.5 µM
COc1cccc(NC(=O)N2CC(=O)N3[C@H](C2)[C@@H](c2ccc(C#CCC4CCCC4)cc2)[C@@H]3CO)c1 | 17 µM and 3.35 µM
Cc1ccc(-c2csc(-c3cccn3CC(=O)NCCCN3CCCC(C)C3)n2)cc1 (configuration not stated) | 17.2 µM
COc1cccc(-c2nc3c(s2)CN(S(=O)(=O)c2ccc(C)cc2)CC3)c1 | 25.9 µM
CC(=O)N(C)C1(c2ccccc2)CCN(CCC[C@]2(c3ccc(Cl)c(Cl)c3)CCCN(C(=O)c3ccccc3)C2)CC1 | 12 µM
O=c1c(O)c(-c2ccc(O)c(O)c2)oc2cc(O)cc(O)c12 | 17.6 µM

Compound | AC50
COc1ccc(S(=O)(=O)N2CCCCN3[C@H](CO)[C@H](c4ccc(C#CCC(C)C)cc4)[C@H]3C2)cc1 | 5.52 µM
O=C(Cc1ccccc1)N1CC(=O)N2[C@H](CO)[C@@H](c3ccc(-c4ccc(F)cc4)cc3)[C@H]2C1 | 22.2 µM
CCc1ccc(C(=O)Nc2ccc3c(c2)CCC(=O)N3C)cc1 | 7.06 µM
O=C(CC1N=C2c3ccccc3N=C(SCc3ccccc3F)N2C1=O)NCCc1ccccc1 (configuration not stated) | > 39 µM (inactive)
COc1ccc(CNC2=NCCNC23CCN(S(=O)(=O)c2ccc(Cl)s2)CC3)cc1 | 3.91 µM
CN(C)CCNC(=O)c1ccc2onc(-c3coc(C4CC4)n3)c2c1 | 21.3 µM
O=C(COc1ccc(F)cc1)N1CCC2(CC1)Nc1ccc(Cl)cc1-n1cccc12 | 17 µM
Cc1cc(C)cc(S(=O)(=O)N2CCC[C@@H]2C(=O)NCCc2csc(-c3ccccc3)n2)c1 | 13.5 µM
Cc1ccc(-c2nc(Cn3c(=O)c4c(C)cc(C)nc4n(-c4ccccc4)c3=O)c(C)o2)cc1 | 30.9 µM
COc1ccc(CNC(=O)CC2N=C3c4ccccc4N=C(SCc4ccc(C)cc4)N3C2=O)cc1 (configuration not stated) | 19.4 µM
O=C(CCC1N=C2c3ccccc3N=C(SCc3ccc(F)cc3)N2C1=O)NCc1ccccc1 (configuration not stated) | 31.8 µM
Cc1ccc(-n2ncc3c(NCc4cccc(Cl)c4)ncnc32)c(C)c1 | 22.3 µM
COc1cccc(S(=O)(=O)N2CCCCN3[C@H](CO)[C@H](c4ccc(C#CCC(C)C)cc4)[C@H]3C2)c1 | 16.5 µM and 1.89 µM and 10.4 µM
Cc1nc(OCC(=O)Nc2ccc(Br)cc2F)c2ccccc2n1 | 21 µM
COc1ccc(-c2nc(CN(c3ccccc3OC)S(=O)(=O)c3ccccc3)c(C)o2)cc1 | 7.78 µM
C(=C\c1ccc(C2[C@H]3CNC[C@@H]2N3CC2CCOCC2)cc1)/c1ccccc1 (some centres not stated) | 26.3 µM
Cc1cnn(C(C)C(=O)N2CCc3[nH]nc(-c4ccc(F)c(F)c4)c3C2)c1 (configuration not stated) | > 20 µM (inactive)
C1=C(c2ccccc2)CC(c2ccccc2)=NN=C1c1ccccc1 | 15.6 µM
CCc1ccc(NS(=O)(=O)c2cc3c4c(c2)CCC(=O)N4CCC3)cc1 | 37.7 µM
COc1ccc(-c2nc(C)c(-c3ccc(SCc4cc(C)ccc4C)nn3)s2)cc1 | > 39 µM (inactive)
COc1ccccc1C#Cc1ccc([C@H]2[C@@H](CO)N3CCCCN(C(=O)C4CCC4)C[C@@H]23)cc1 | 18.8 µM
Cc1ccc(S(=O)(=O)N2CCC3(CC2)NCCN=C3NCc2ccccc2Cl)cc1C | 12.2 µM
CC(C)CC#Cc1ccc([C@@H]2[C@@H](CO)N3CCCCN(C(=O)Nc4ccccc4)C[C@@H]23)cc1 | 22.5 µM and 15.4 µM

Compound | AC50
CCCCOc1ccc2c(=O)c(-c3cc(C(=O)OC)oc3C)c(C(F)(F)F)oc2c1C | 4.38 µM and 7.67 µM
CC(C)n1cnc2c(NCC3CC3)nc(C3CCN(C(=O)c4cccc(F)c4F)CC3)cc21 | 19.8 µM
Cc1ccc(NC(=O)N2CCN(Cc3nc(-c4cccc(Cl)c4)oc3C)CC2)c(Cl)c1 | 34.2 µM
CCN(CC)c1nc(-c2ccc(OC)cc2)nc2ccccc12 | 15.7 µM
C[C@H](NC(=O)C[C@H]1CC[C@@H]2[C@@H](COc3ccc(NS(=O)(=O)c4ccc(Cl)cc4)cc3C(=O)N2C)O1)c1ccccc1 | 11.1 µM and 18.1 µM
CC(C)CC#Cc1ccc([C@@H]2[C@@H](CO)N3CCCCN(C(=O)Nc4ccccc4)C[C@H]23)cc1 | 13.5 µM and 9.09 µM
CCOc1ccccc1N(Cc1nc(-c2ccc(C)cc2)oc1C)S(=O)(=O)c1cccs1 | 9.38 µM
COc1ccc(CNC2=NCCNC23CCN(S(=O)(=O)c2ccc(C)c(C)c2)CC3)cc1 | > 39 µM (inactive)
Cc1cccc(-n2ncc3c(NCc4cccc(Cl)c4)ncnc32)c1 | 24.5 µM
CCN1CCN(c2nc(-c3ccc(OC)cc3)nc3ccccc23)CC1 | 17.4 µM
Cc1cccc(CNC2=NCCNC23CCN(S(=O)(=O)c2ccc(C(C)C)cc2)CC3)c1 | 13 µM
Cc1ccccc1Cn1c(CN2CCC(C(=O)NCCCN3CCCC3)CC2)cc2ccccc21 | 18.2 µM
Cc1ccccc1N(Cc1nc(-c2ccccc2)oc1C)S(=O)(=O)c1cccs1 | > 39 µM (inactive)
O=C(CC1N=C2c3ccccc3N=C(SCc3ccc(F)cc3)N2C1=O)NCCc1ccccc1 (configuration not stated) | 4.59 µM
CCCc1cc(C2CCCN2C(=O)Cn2nc(C(F)(F)F)c3c2CCCC3)no1 (configuration not stated) | 21.6 µM
NC(N)=N/N=C/c1c(Cl)cccc1Cl | 19.7 µM
Clc1ccc(-n2ncc3c(NCc4cccc(Cl)c4)ncnc32)cc1 | 16.9 µM
Cc1cc(C)c(S(=O)(=O)N2CCC[C@@H]2C(=O)NCCc2csc(C)n2)c(C)c1 | 31.9 µM
O=C(Nc1cccc(F)c1)N1CCCCN2[C@H](CO)[C@@H](c3ccc(C#Cc4cccnc4)cc3)[C@@H]2C1 | 16 µM
Clc1ccc(-c2nc(NCc3ccc4c(c3)OCO4)c3ccccc3n2)cc1 | 11.3 µM
O=C1CCc2cc(S(=O)(=O)N3CCc4ccccc43)cc3c2N1CCC3 | > 39 µM (inactive)
CCN(c1ccccc1C)S(=O)(=O)c1cc2c3c(c1)CCC(=O)N3CCC2 | 13 µM
C[C@@H]1CN(Cc2ccc(F)cc2)CCN1C(=O)COc1ccc(Cl)cc1NC(N)=O | > 39 µM (inactive)

Compound | AC50
CCc1nc(OCC(=O)Nc2ccccc2C(=O)OC)c2ccccc2n1 | > 39 µM (inactive)
CN1c2ccc(C3=CCCCC3)cc2[C@@H]2[C@@H](CCN2C(=O)c2ccc3c(c2)OCO3)[C@@H]1CO | 19.3 µM
COc1ccc(S(=O)(=O)N2CCCCN3[C@H](CO)[C@@H](c4ccc(C#CCC(C)C)cc4)[C@H]3C2)cc1 | 4.13 µM and 4.65 µM
Cc1ccc2c(c1)c(Cn1cc(-c3sccc3C)nn1)nn2C | 20.2 µM and 28.7 µM
CCN1CCCC1CNC(=O)C1CCN(Cc2cc3ccccc3n2Cc2ccccc2Cl)CC1 (configuration not stated) | 28.7 µM
CC(C)CCN1Cc2c(C(=O)Nc3cccc(F)c3)ncn2-c2ccccc2S1(=O)=O | 13 µM
O=C(Nc1ccc(F)cc1)N1CC(=O)N2[C@H](CO)[C@@H](c3ccc(-c4cccc(F)c4)cc3)[C@@H]2C1 | 19.9 µM
CCOc1ccccc1-c1nc(CN(c2cccc(OC)c2)S(=O)(=O)c2ccccc2)c(C)o1 | > 39 µM (inactive)
FC(F)(F)C1CN(c2cc(-c3ccccc3)nc3ccccc23)CCO1 (configuration not stated) | 25.1 µM
O=C(Cc1ccccn1)N1CC(=O)N2[C@H](CO)[C@@H](c3ccc(C#CCC4CCCC4)cc3)[C@@H]2C1 | 9.77 µM and 15.5 µM
CCc1nc(OCC(=O)Nc2cccc(Br)c2)c2ccccc2n1 | > 39 µM (inactive)
O=C(CC1N=C2c3ccccc3N=C(SCc3ccccc3F)N2C1=O)NC1CCCCC1 (configuration not stated) | 19.1 µM
COc1cc2nc(N3CCN(C(=O)c4ccco4)CC3)nc(N)c2cc1OC | 18.4 µM
N#Cc1ccc(-c2ccc([C@@H]3[C@@H](CO)N4C(=O)CNC[C@H]34)cc2)cc1 | 11.8 µM
O=C1CCc2cc(NC(=O)c3cccc(C(F)(F)F)c3)ccc2N1 | 16.8 µM
O=C(CCC1N=C2c3ccccc3N=C(SCc3cc(=O)n4cc(Cl)ccc4n3)N2C1=O)NC1CCCCC1 (configuration not stated) | > 39 µM (inactive)
O=C(Cc1cccnc1)N1CC(=O)N2[C@H](CO)[C@@H](c3ccc(C#CC4CCCCC4)cc3)[C@@H]2C1 | 8.96 µM and 14.8 µM
O=C(CC1CC1)N1CC[C@@H]2[C@H]1c1cc(-c3ccc(F)cc3)ccc1N[C@@H]2CO | 19.7 µM
COc1ccc(CNc2nc(SCc3ccc(Cl)cc3)nc3ccccc23)cc1 | 35.5 µM
Cc1sc2ncnc(Oc3ccc(OCc4ccccc4)cc3)c2c1C | 7.63 µM and 8.8 µM
O=C(Nc1ccc2c(c1)OCO2)N1C[C@@H]2N[C@H](C1)C2c1ccc(C=Cc2ccccc2)cc1 (some centres not stated) | 4.2 µM and 3.84 µM
COc1ccc(C#Cc2ccc([C@H]3[C@H]4CN(C(=O)NC(C)C)CC(=O)N4[C@H]3CO)cc2)cc1 | 18.5 µM
COc1ccc(-c2nc(Cn3nnc(-c4nc(-c5ccncc5)no4)c3C)c(C)o2)cc1 | > 39 µM (inactive)
